# Test results: PMC9412414, “A Study on Repositioning Nalidixic Acid via Lanthanide Complexation: Synthesis, Characterization, Cytotoxicity and DNA/Protein Binding Studies” (Pharmaceuticals, 2022)
# Where two headings read alike, the source gives them in different places.
# Tests used:
# [1] = system: LoVo (human colorectal adenocarcinoma) cell line; assay: MTS cytotoxicity assay, LoVo cell line; assay type: cell-based; settings: 48 h of incubation
# Method: (§1) LoVo, MDA-MB-231 and HUVEC human cell lines were purchased from American Type Culture Collection (ATCC). Cells were routinely maintained in culture either in culture flasks or seeded in plates, using Dulbecco’s modified Eagle medium/nutrient mixture F-12 (DMEM:F12) medium supplemented with […], 10% fetal calf serum (Sigma Aldrich, St. Louis, MO, USA), 100 units/mL penicillin, 100 μg/mL streptomycin and incubated at 37 °C in 5% CO2 humidified atmosphere.
# (§2) Cytotoxicity studies were performed in 96-well microtiter plates with flat bottoms (Falcon, Teterboro, NJ, USA) using the CellTiter 96 Aqueous One Solution Cell Proliferation Assay (Promega, Madison, WI, USA), an MTS-based colorimetric assay. Metabolically active cells have the ability to reduce MTS [3-(4,5-dimethylthiazol-2-yl)-5-(3-carboxymethoxyphenyl)-2-(4-sulfophenyl)-2H-tetrazolium, inner salt], a yellow tetrazolium salt, to a colored formazan that is soluble in the culture medium. Briefly, 15 × 10^3 cells per well were cultured in 100 µL culture medium. After 24 h, adherent cells were treated with different concentrations of the studied compounds, as well as adriamycin (Adr) and cisplatin (Cis-Pt), used as positive controls for 24 h and 48 h, respectively. Each well was then filled with 20 µL of reagent containing MTS and PES (phenazine ethosulfate, a cationic dye with excellent chemical stability that binds to MTS and produces a stable solution). The resulting formazan was determined using a Tecan GENios Spectrophotometer (Tecan US, Durham, NC, USA) by measuring the absorbance at λ = 492 nm after incubation for 4 h at 37 °C with moderate agitation every 15 min. The cytotoxicity tests were performed in triplicate, with results reported as mean values with standard deviations (SD). The cytotoxicity of DMSO was also investigated under the same conditions, and no harmful effect was found at doses less than 1%.
# (§3) Data were expressed as cell viability by comparing with untreated cells considered 100% viable, using the following formula:(1) Cell viability (%)=absorbance of treated cells−absorbance of culture medium/absorbance of untreated cells−absorbance of culture medium
# [2] = system: HUVEC (human umbilical vein endothelial cells); assay: MTS cytotoxicity assay, HUVEC normal cell line; assay type: cell-based; settings: 24 h of incubation
# Method: as §1, §2, §3
# EB–DNA system (CT-DNA) = assay: Competitive binding assay with ethidium bromide (EB) through fluorescence spectroscopy; set-up: species or system calf; settings: EB 2 µM, CT-DNA 10 µM, compound 0–40 µM
# Method: The fluorescence spectra were recorded using 1.6 mL samples containing 10 µM CT-DNA, 2 µM EB, and increasing amounts (0–40 µM with an increment of 5 µM) of tested compounds; the samples were prepared by keeping the components in contact for 10 min at room temperature, under continuous stirring and in the dark. The excitation wavelength was 500 nm, and the spectra were recorded between the wavelengths of 520 and 800 nm. A Jasco FP 6500 fluorometer and quartz cells with a 1 cm route length were employed. The classical Stern–Volmer equation (Equation (3)) was used to interpret the obtained data:(3) F0/F=1+KSV·[Q] F0 and F are the fluorescence intensities of the EB–DNA samples in the absence and presence of the tested compounds, respectively; KSV is the Stern–Volmer constant, which was computed as the slope from the plot of F0/F vs. [Q], where [Q] is the chemical concentration.
# The binding ratio was plotted against the logarithm of the concentration in comparison with a control sample exposed solely to DMSO. (4) y=A1+(A2−A1)×x^n/K50^n+x^n
# For fitting data points, the modified Hill function with offset (Origin®) was used: where y represents the binding ratio (F/F0), x represents the concentration, A1 represents the minimum of y values, A2 represents the maximum of y values, K50 represents the concentration corresponding to 50% binding or the half maximum binding constant, and n represents the Hill coefficient.
# apotransferrin (apo-Tf) = target: T1, apotransferrin (apo-Tf) (Homo sapiens, UniProt P02787); assay: Apo-Tf fluorescence quenching binding study; settings: for Ka (association binding constant), Apo-Tf / n1 (Number of Binding Sites), Apo-Tf / n2 (Hill Coefficient), Apo-Tf / Kd / fa (fraction of fluorophore accessible to the quencher), Apo-Tf / Ksv* (Stern–Volmer quenching constant), Apo-Tf / quenching effect on apo-Tf fluorescence peak: apo-Tf 1 µM; for Ka (association binding constant), Apo-Tf / n1 (Number of Binding Sites), Apo-Tf / n2 (Hill Coefficient), Apo-Tf / Kd / fa (fraction of fluorophore accessible to the quencher), Apo-Tf / Kq (bimolecular quenching constant), Apo-Tf: 298 K; for fa (fraction of fluorophore accessible to the quencher), Apo-Tf / Ksv* (Stern–Volmer quenching constant), Apo-Tf: compound 0–8 µM; for Ksv* (Stern–Volmer quenching constant), Apo-Tf: Tris-HCl pH 7.4, 298 K; for quenching effect on apo-Tf fluorescence peak: compound up to 8 µM; for Kq (bimolecular quenching constant), Apo-Tf: from Ksv* with τ0 = 10^−8 s
# T1 construct: purchased Sigma-Aldrich Chemical Co. (Schnelldorf, Germany)
# T1 sequence (P02787 20-698): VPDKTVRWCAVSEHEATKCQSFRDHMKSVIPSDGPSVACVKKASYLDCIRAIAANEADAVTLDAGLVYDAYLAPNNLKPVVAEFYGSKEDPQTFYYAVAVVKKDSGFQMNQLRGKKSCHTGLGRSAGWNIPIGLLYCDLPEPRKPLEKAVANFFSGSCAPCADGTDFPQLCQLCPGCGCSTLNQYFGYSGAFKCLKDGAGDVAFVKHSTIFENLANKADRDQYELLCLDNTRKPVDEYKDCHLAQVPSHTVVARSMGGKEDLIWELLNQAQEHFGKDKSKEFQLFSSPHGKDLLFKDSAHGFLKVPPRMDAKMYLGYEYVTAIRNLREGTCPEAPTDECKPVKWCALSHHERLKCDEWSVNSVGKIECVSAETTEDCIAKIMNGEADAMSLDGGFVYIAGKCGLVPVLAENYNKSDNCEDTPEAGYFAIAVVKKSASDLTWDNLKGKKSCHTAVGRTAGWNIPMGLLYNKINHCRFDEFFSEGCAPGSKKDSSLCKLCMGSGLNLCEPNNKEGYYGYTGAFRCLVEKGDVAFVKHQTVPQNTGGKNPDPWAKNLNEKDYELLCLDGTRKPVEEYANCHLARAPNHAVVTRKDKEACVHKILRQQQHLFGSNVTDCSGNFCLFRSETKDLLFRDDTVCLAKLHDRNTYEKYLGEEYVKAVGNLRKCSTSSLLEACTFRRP
# Method: (§4) Using a Jasco FP 6500 spectrofluorometer (Jasco, Tokyo, Japan) and quartz cells with a 1 cm path length, the fluorescence spectra of HSA and apo-Tf were recorded in the presence and absence of the examined substances. The 2.5 mL samples containing 2.5 µM HSA or 1 µM apo-Tf were titrated by adding 5 µL of the tested substance at a time, a volume that corresponded to a 1 µM increase in concentration. The concentration range used for these experiments varied from 0 to 8 µM. The relevant spectra were collected in the emission domains of 300–500 nm (HSA) and 305–500 nm (apo-Tf) after 3 min of continuous stirring at room temperature, using excitation wavelengths of 280 nm (HSA) and 295 nm (apo-Tf).
# (§5) Experiments were conducted in a pH = 7.4 Tris-HCl buffer (5 mM Tris-HCl/50 mM NaCl for HSA and 5 mM Tris-HCl/50 mM NaCl/25 mM NaHCO3 for apo-Tf).
# (§6) The following modified Stern–Volmer equation has been used to calculate the Stern–Volmer constant, which will be denoted as KSV* in order to differentiate it from the Stern–Volmer constant calculated for the DNA binding experiments:(5) F0/F0−F=1/faKsv*[Q]+1/fa where F0 and F are the fluorescence intensities in the absence and presence of the tested compounds, fa is the fraction of fluorophore accessible to the quencher (the tested compounds), [Q] is the quencher concentration, and KSV* (M^−1) is the Stern–Volmer constant; the plot of F0/(F0 − F) against 1/[Q] yields KSV as the slope and fa as the y intercept.
# (§7) Subsequently, the bimolecular quenching rate constant was obtained by using Equation (6):(6) Ksv^*=Kqτ0
# (§8) Kq (M^−1·s^−1) is the bimolecular quenching rate constant and τ0 is the fluorophore’s lifespan in the absence of the investigated chemicals (10^−8 s). The value of Kq can be used to assess whether the quenching phenomena have an underlying static or dynamic mechanism.
# (§9) Using the following equation, the affinity constant (Ka) and the number of binding sites (n) have been calculated: (7) lgF0−F/F=lgKa+nlg[Q]
# (§10) The binding affinity, Kd, can be calculated using the quadratic function below:(8) F0−F/F0−Fb=[P]t+[Q]+Kd−([P]t+[Q]+Kd)^2−4[P]t[Q]/2[P]t where F and F0 are the fluorescence intensities of the protein in the presence and absence of the quencher, respectively, Fb is the fluorescence of a fully bound protein–quencher, [P]t is the total concentration of the protein, and [Q] is the concentration of the added quencher. Each binding isotherm was plotted against the total quencher concentration in solution as a function of bound to free protein (F/F0).
# (§11) The isotherms were then fitted using the nonlinear regression function below:(9) F/F0= F1+(F2−F1)Kdn/Kdn+[Q]^n where n represents the Hill coefficient, F1 and F2 are the horizontal and vertical asymptotes, respectively. The Kd in Equation (9) is derived from the quadratic binding function (Equation (8)).
# (§12) Data were collected in triplicate, averaged, and expressed as mean value ± standard deviation (SD). All graph fitting models were defined and built using OriginPro® 2018.
# [3] = target: T2, human serum albumin (HSA) (Homo sapiens, UniProt P02768); assay: HSA fluorescence quenching binding study; settings: for Ka (association binding constant), HSA / n1 (Number of Binding Sites), HSA / n2 (Hill Coefficient), HSA / Kd / fa (fraction of fluorophore accessible to the quencher), HSA / Kq (bimolecular quenching constant), HSA: 298 K; for fa (fraction of fluorophore accessible to the quencher), HSA / Ksv* (Stern–Volmer quenching constant), HSA: compound 0–8 µM; for Ksv* (Stern–Volmer quenching constant), HSA: Tris-HCl pH 7.4, 298 K; for Kq (bimolecular quenching constant), HSA: from Ksv* with τ0 = 10^−8 s
# T2 construct: purchased Sigma-Aldrich Chemical Co. (Schnelldorf, Germany)
# T2 sequence (P02768 25-609): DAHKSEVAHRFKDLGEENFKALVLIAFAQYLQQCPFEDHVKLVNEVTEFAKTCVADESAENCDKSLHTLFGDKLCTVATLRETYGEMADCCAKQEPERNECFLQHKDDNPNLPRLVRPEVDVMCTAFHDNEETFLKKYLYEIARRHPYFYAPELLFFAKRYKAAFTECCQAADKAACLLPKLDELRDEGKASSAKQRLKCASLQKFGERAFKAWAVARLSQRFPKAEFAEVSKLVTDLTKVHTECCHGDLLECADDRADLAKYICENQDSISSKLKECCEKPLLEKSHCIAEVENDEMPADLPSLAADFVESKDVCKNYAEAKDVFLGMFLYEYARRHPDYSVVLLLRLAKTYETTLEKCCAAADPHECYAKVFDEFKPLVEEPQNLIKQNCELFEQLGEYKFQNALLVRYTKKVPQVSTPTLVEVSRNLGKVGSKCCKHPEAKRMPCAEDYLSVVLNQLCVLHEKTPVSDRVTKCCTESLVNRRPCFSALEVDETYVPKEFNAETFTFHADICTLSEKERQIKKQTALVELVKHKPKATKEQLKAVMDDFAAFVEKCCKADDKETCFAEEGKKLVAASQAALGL
# Method: as §4, §5, §6, §7, §8, §9, §10, §11, §12
# [4] = read-out: Kd (dissociation constant), Apo-Tf
# [5] = HSA 2.5 µM, read-out: Kd (dissociation constant), HSA
SMILES,IC50 [1] [µM],IC50 [2] [µM],EB Displacement Assay K50 (half maximum binding constant) (EB–DNA system (CT-DNA)) [µM],"KSV, Stern–Volmer quenching constant (EB–DNA) (EB–DNA system (CT-DNA))","Ka (association binding constant), Apo-Tf (apotransferrin (apo-Tf))","n1 (Number of Binding Sites), Apo-Tf (apotransferrin (apo-Tf))","n2 (Hill Coefficient), Apo-Tf (apotransferrin (apo-Tf))",Kd (apotransferrin (apo-Tf); [4]) [µM],"fa (fraction of fluorophore accessible to the quencher), Apo-Tf (apotransferrin (apo-Tf))","Ksv* (Stern–Volmer quenching constant), Apo-Tf (apotransferrin (apo-Tf))",quenching effect on apo-Tf fluorescence peak (apotransferrin (apo-Tf)) [%],"Kq (bimolecular quenching constant), Apo-Tf (apotransferrin (apo-Tf)) [M⁻¹ s⁻¹]","Ka (association binding constant), HSA ([3]; HSA 2.5 µM)","n1 (Number of Binding Sites), HSA ([3]; HSA 2.5 µM)","n2 (Hill Coefficient), HSA ([3]; HSA 2.5 µM)","Kd [3, 5] [µM]","fa (fraction of fluorophore accessible to the quencher), HSA ([3]; HSA 2.5 µM)","Ksv* (Stern–Volmer quenching constant), HSA ([3]; HSA 2.5 µM)","Kq (bimolecular quenching constant), HSA [3] [M⁻¹ s⁻¹]",IC50 (μM) LoVo [1],other results
"CCn1cc(C(=O)[O-])c(=O)c2ccc(C)nc21.CCn1cc(C(=O)[O-])c(=O)c2ccc(C)nc21.O.O.O.O.[OH-].[Sm+3] [Sm(nal)2, Sm(C12H11N2O3)2(OH)(H2O)·3H2O]",92.4 ± 16,> 200,31.35 ± 4.21,10.24 ± 0.22 M^−1 (×10^3),(10.17 ± 6.14) × 10^4 M^−1,1.01 ± 0.05,1.71 ± 0.31,6.16 ± 1.27,0.79 ± 0.02,(1.16 ± 0.06) × 10^5 M^−1,35,1.16e+13,(8.25 ± 1.62) × 10^5 M^−1,1.08 ± 0.01,1.34 ± 0.09,3.6 ± 0.11,1.05 ± 0.02,(2.50 ± 0.12) × 10^5 M^−1,2.5e+13,,"quenching effect on HSA fluorescence peak ([3]; HSA 2.5 µM, compound up to 8 µM): ~ 73%"
CCn1cc(C(=O)O)c(=O)c2ccc(C)nc21 [Nalidixic acid],,,50.41 ± 9.60,9.87 ± 0.11 M^−1 (×10^3),,0.79 ± 0.02,1.55 ± 0.37,6.55 ± 2.11,0.48 ± 0.03,(1.02 ± 0.09) × 10^5 M^−1,,1.02e+13,,1.03 ± 0.01,1.33 ± 0.29,5.69 ± 1.44,1.06 ± 0.02,(1.25 ± 0.06) × 10^5 M^−1,1.25e+13,not toxic,"IC50 ([1]; Homo sapiens): > 200 µM; IC50 ([2]; Homo sapiens): > 200 µM; Kd (apotransferrin (apo-Tf); read-out: Ka (association binding constant), Apo-Tf): 323 µM; Kd ([3]; HSA 2.5 µM, read-out: Ka (association binding constant), HSA): 4.57 µM"
"CCn1cc(C(=O)[O-])c(=O)c2ccc(C)nc21.CCn1cc(C(=O)[O-])c(=O)c2ccc(C)nc21.O.O.O.O.[Gd+3].[OH-] [Gd(nal)2, Gd(C12H11N2O3)2(OH)(H2O)·3H2O]",> 200,> 200,34.11 ± 8.90,10.47 ± 0.13 M^−1 (×10^3),(3.46 ± 1.34) × 10^4 M^−1,0.94 ± 0.03,1.20 ± 0.40,8.87 ± 6.2,0.92 ± 0.07,(0.78 ± 0.09) × 10^5 M^−1,,7.8e+12,(15.52 ± 2.93) × 10^5 M^−1,1.15 ± 0.01,1.20 ± 0.23,4.79 ± 0.84,1.25 ± 0.03,(1.51 ± 0.07) × 10^5 M^−1,1.51e+13,not toxic,
"CCn1cc(C(=O)[O-])c(=O)c2ccc(C)nc21.CCn1cc(C(=O)[O-])c(=O)c2ccc(C)nc21.CCn1cc(C(=O)[O-])c(=O)c2ccc(C)nc21.O.O.O.O.O.O.O.O.[La+3] [La(nal)3, La(C12H11N2O3)3(H2O)2·6H2O]",49.8 ± 7.92,149 ± 17.9,36.45 ± 16.53,2.48 ± 0.44 M^−1 (×10^3),(1.51 ± 0.72) × 10^4 M^−1,0.86 ± 0.04,1.04 ± 0.19,8.64 ± 2.22,0.80 ± 0.06,(1.04 ± 0.13) × 10^5 M^−1,31,1.04e+13,(27.48 ± 2.10) × 10^5 M^−1,1.16 ± 0.00,1.18 ± 0.08,2.91 ± 0.07,1.12 ± 0.01,(2.75 ± 0.10) × 10^5 M^−1,2.75e+13,,
"N.N.[Cl][Pt][Cl] [Cis-Pt, cisplatin, reference compound]",38.6 ± 4.63,78.5 ± 16,,,,,,,,,,,,,,,,,,,
